# Source: patent publication US10888536B1, “Method of improvement of insulin sensitivity in obese patients” (FOOYIN UNIVERSITY, priority 2019, dated 2021)
# Key:
# [1] = system: TNF-α; test: TNF-α level in medium of J774A.1 cells with or without LPS (Trial B); type: cell-based, mouse
# Description: The increase of cellular ATP can change the activity of macrophage, inhibiting the production of the proinflammatory cytokine, TNF-α, as well as the inflammation. After 15 minutes, 200 ng/ml lipopolysaccharide (LPS) was used to induce the inflammation in the J774A.1 cells of groups B1, B3 and B5. The medium of the J774A.1 cells was collected, and the TNF-α level in the medium was detected by a commercial kit.
# [2] = system: mouse macrophage (J774A.1 cell line); test: ATP level in J774A.1 cells by ATP luminometer (Trial A); type: cell-based
# Description: To evaluate propanamide can increase of ATP synthesis, mouse macrophage (J774A.1 cell line) was used as the cell model. The J774A.1 cells without treatment were used as group A0. ATP level in the J774A.1 cells of groups A0-A5 were analyzed by ATP luminometer, respectively. The unit of ATP level is relative light unit (R.L.U).
# [3] = system: obese mice; test: Fasting blood glucose in high fat diet obese mice (Trial C); type: in vivo, Male ICR mice; conditions: high fat diet containing 3 ppm propanamide for 2 weeks (group C2), fasted 18 hours (FIG. 5)
# Description: Male ICR mice were used as the animal model in Trial (C). […] The obese mice of group C1 were then fed by the high fat diet for another 2 weeks, while the obese mice of group C2 were fed by the high fat diet containing 3 ppm propanamide for further 2 weeks. The normal mice of group C0 were fed by normal diet for 19 weeks. After 19 weeks, the mice of groups C0-C2 were sacrificed, and the effect of propanamide on reducing the accumulation of visceral fat was estimated by weight of epididymal fat (% of body weight). Before being sacrificed, the mice of groups C0-C2 were fasted for 18 hours, and the levels of fasting blood glucose of the mice were measured. Referring to FIG. 5, the levels of fasting blood glucose of the obese mice fed by the high fat diet (group C1) were higher than that of the normal mice fed by the normal diet (group C0).
# [4] = system: obese rats; test: Oral glucose tolerance test (OGTT) in high fat diet obese rats (Trial D); type: in vivo, Wistar male rats
# Description: (§1) Wistar male rats were used as the animal model in Trial (D). […] The obese rats of group D1 were then fed by the high fat diet without propanamide for another 4 weeks (total 23 weeks), while the obese rats of group D2 and D3 were fed by the high fat diet respectively containing 1 ppm and 3 ppm propanamide for further 4 weeks, The normal rats of group D0 were fed by normal diet for 23 weeks (total 23 weeks). At the 22th week, the oral glucose tolerance tests (OGTT) were performed as following: the rats of groups D0-D3 were fasted for 18 hours, and then were administered a 20% glucose solution (2 g glucose/kg body weight) by gavage. Blood samples were collected and the glucose concentrations were detected at 0, 30, 60, 90, and 120 minutes after glucose loading.
# [5] = system: obese rats; test: Fasting serum insulin in high fat diet obese rats (Trial D); type: in vivo, Wistar male rats; conditions: 1 and 3 ppm propanamide in high fat diet for 4 weeks (groups D2 and D3), fasted 18 hours, 23rd week (FIG. 7)
# Description: as §1, with “loading. At 23th week, the rats of groups D0-D3 were fasted for 18 hours before scarification, and the serum were analyzed the level of insulin.” for “loading.”
compound,measurement,setting,value
CCC(N)=O [propanamide],production of TNF-α not induced by LPS,"[1]; propanamide 4 and 40 μM (groups B2 and B4), no LPS (FIG. 3)",also inhibit the production of TNF-α
same,production of TNF-α induced by LPS,"[1]; propanamide 4 and 40 μM (groups B3 and B5), 200 ng/ml LPS after 15 minutes (FIG. 3)",effectively inhibit the production of TNF-α induced by LPS
same,dose dependence of ATP production,"[2]; concentration below 4 μM, 6 hours (FIG. 2)",dose-dependent response
same,ATP level in the J774A.1 cells,"[2]; propanamide 0.04-400 μM, 6 hours, vs untreated cells (FIG. 2)",effectively elevate ATP level
same,levels of fasting blood glucose,[3],decreased significantly
same,area under curve (AUC) of blood glucose in OGTT,[4]; 1 and 3 ppm propanamide in high fat diet (groups D2 and D3) (FIG. 6b),decreased significantly
same,blood glucose during OGTT vs group D1,"[4]; 1 ppm and 3 ppm propanamide in high fat diet (groups D2 and D3), 120 minutes after glucose loading (FIG. 6a)",significantly lower
same,blood glucose in untreated obese rats (group D1) relative to group D2 during OGTT,"[4]; 1 ppm propanamide in high fat diet (group D2), 90 minutes to 120 minutes after glucose loading (FIG. 6a)",evidently higher
same,fasting serum insulin,[5],reduced to normal level
